From patent publication US12018059B2, “Human amylin analog polypeptides and methods of use” (Intarcia Therapeutics, Inc., priority 2018, dated 2024)
≈ marks a conversion by molar mass, not a printed value. Where two headings read alike, the source gives them in different places. Starred links: 1 amine or outer side, 2 acyl side, 3 side chain; linkers in the order of their positions; H or OH if unused. Positions of bridges follow the written chain, without caps; N, C: chain ends. Non-standard residues stand in square brackets, D forms with d. Residues, ends and D or L forms follow the SMILES beside them. Groups on a side chain read outwards from the residue. *: point of attachment. C20 diacid = O=C(O)CCCCCCCCCCCCCCCCCCC(=O)*; C18 diacid = O=C(O)CCCCCCCCCCCCCCCCC(=O)*; γGlu = O=C(O)[C@H](CCC(=O)[*:2])N[*:1]; Stearoyl = CCCCCCCCCCCCCCCCCC(=O)*

Experiments:
[1] = Solubility of amylin analog polypeptides (visual inspection, room temperature); type: physicochemical
Protocol: The analog polypeptides described herein were tested for solubility in saline 20% DMSO in water (i.e., bioassay buffer) or in aqueous (DI water) at room temperature. Samples were visually inspected for clarity of the sample, any appearance of turbidity or haziness.

in vivo = test: in vivo; parameters: species or system Sprague-Dawley rats; conditions: rat, iv, 0.033 mg/kg
In short: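 Peptide plasma levels measured by UPLC-MS/MS (C18, product-ion monitoring) after protein precipitation or WCX SPE, calibrated in K2EDTA/protease-inhibitor rat plasma. Dosing in non-fasted male Sprague-Dawley rats (n=3): 0.033 mg/kg over 1 h by IV or SC infusion, or 0.3 mg/kg SC bolus; sampling up to 48 h.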

[2] = 27-day weight loss in combination with exenatide; conditions: LE DIO rats
[3] = Acute food intake inhibition after SC bolus injection (BioDAQ); conditions: Long Evans rats on 45% high fat diet
[4] = 13-day dose-response body weight loss, continuous SC infusion by osmotic mini-pump; conditions: 13 days, LE DIO rats; for DIO Dose Response 13 d weight loss, ΔΔ % weight loss: from baseline and vehicle control
[5] = Stability of amylin analog polypeptides in solution at 37° C. (purity by LC/MS and HPLC); type: physicochemical; conditions: 1 mg/ml, trifluoro acetate salt
Protocol: Several amylin analog polypeptides described herein were tested, as the trifluoro acetate salt, for stability in DMSO (i.e., organosulfur solvent) or in aqueous (i.e., in DI water) at 1 mg/ml solution. These analog polypeptides were incubated at 37° C., and samples were withdrawn at various time intervals and analyzed by LC/MS and HPLC for determination of purity and mass of the parent peptide and extent of any degradation products. The purity results of these analyses are shown in Tables 6A & 6B and are considered indicative of stability.

[6] = in vivo; cited from earlier work
[7] = in serum; cited from earlier work

Compound: CCCCCCCCCCCCCCCCCC(=O)N[C@@H](CCC(=O)N[C@@H](CCC(=O)N[C@@H](CCC(=O)NCCCC[C@@H](NC(=O)[C@H](CCC(=O)O)NC(=O)[C@H](CC(N)=O)NC(=O)[C@H](C)NC(=O)[C@H](CC(C)C)NC(=O)[C@H](CCCNC(=N)N)NC(=O)[C@H](CCC(N)=O)NC(=O)[C@@H](NC(=O)[C@H](C)NC(=O)[C@@H]1CSSC[C@H](NC(=O)[C@@H](N)CO)C(=O)N[C@@H](CC(N)=O)C(=O)N[C@@H]([C@@H](C)O)C(=O)N[C@@H](CO)C(=O)N[C@@H]([C@@H](C)O)C(=O)N1)[C@@H](C)O)C(=O)N[C@@H](Cc1c[nH]cn1)C(=O)N[C@@H](CCCCN)C(=O)N[C@@H](CO)C(=O)N[C@@H](CO)C(=O)N[C@@H](CC(N)=O)C(=O)N[C@@H](CC(N)=O)C(=O)N[C@@H](Cc1ccccc1)C(=O)NCC(=O)N1CCC[C@H]1C(=O)N[C@H](C(=O)N[C@@H](CC(C)C)C(=O)N1CCC[C@H]1C(=O)N1CCC[C@H]1C(=O)N[C@H](C(=O)N[C@@H](CCCCN)C(=O)N[C@H](C(=O)NCC(=O)N[C@@H](CO)C(=O)N[C@@H](CCC(=O)O)C(=O)N[C@H](C(=O)N[C@@H](Cc1ccc(O)cc1)C(N)=O)[C@@H](C)O)C(C)C)[C@@H](C)O)[C@@H](C)CC)C(=O)O)C(=O)O)C(=O)O [Compound A13] (H-SCNTSTCATQRLANE[dK]([γGlu-γGlu-γGlu-Stearoyl])HKSSNNFGPILPPTKVGSETY-NH2; disulfide 2-7; N-terminus assumed)
- solubility ([1]; Solubility): 63 mg/mL (≈ 13.6 mM)
- Vd (in vivo; male, Sprague-Dawley): 0.398 L/kg
- clearance (in vivo; male, Sprague-Dawley): 0.705 mL/min/kg
- half-life (in vivo; male, Sprague-Dawley): 7.53 h
- DIO Combination + Exenatide 27 d weight loss, ΔΔ % weight loss ([2]; dose 3 mcg/kg + Exenatide 10 mcg/kg): 9%
- DIO Combination + Exenatide 27 d weight loss, ΔΔ % weight loss ([2]; dose 10 mcg/kg + Exenatide 10 mcg/kg): 12%
- DIO Combination + Exenatide 27 d weight loss, ΔΔ % weight loss ([2]; dose 30 mcg/kg + Exenatide 10 mcg/kg): 12%
- Acute Food Intake % Inhibition vs vehicle ([3]; 0-24 hr after acute SC dosing): 67%
- Acute Food Intake % Inhibition vs vehicle ([3]; 25-48 hr after acute SC dosing): 37%
- Acute Food Intake % Inhibition vs vehicle ([3]; 49-72 hr after acute SC dosing): 6%
- DIO Dose Response 13 d weight loss, ED50 [4]: 0.055 mg/kg
- DIO Dose Response 13 d weight loss, ΔΔ % weight loss [4]: 5%

Compound: CC[C@H](C)[C@H](NC(=O)[C@@H]1CCCN1C(=O)CNC(=O)[C@H](Cc1ccccc1)NC(=O)[C@H](CC(N)=O)NC(=O)[C@H](CC(N)=O)NC(=O)[C@H](CO)NC(=O)[C@H](CO)NC(=O)[C@H](CCCCN)NC(=O)[C@H](Cc1c[nH]cn1)NC(=O)[C@H](CC(C)C)NC(=O)[C@H](CCC(=O)O)NC(=O)[C@H](CC(N)=O)NC(=O)[C@H](C)NC(=O)[C@H](CC(C)C)NC(=O)[C@H](CCCNC(=N)N)NC(=O)[C@H](CCC(N)=O)NC(=O)[C@@H](NC(=O)[C@H](C)NC(=O)[C@@H]1CSSC[C@H](NC(=O)[C@@H](N)CCCCNC(=O)CC[C@H](NC(=O)CC[C@H](NC(=O)CCCCCCCCCCCCCCCCCCC(=O)O)C(=O)O)C(=O)O)C(=O)N[C@@H](CC(N)=O)C(=O)N[C@@H]([C@@H](C)O)C(=O)N[C@@H](CO)C(=O)N[C@@H]([C@@H](C)O)C(=O)N1)[C@@H](C)O)C(=O)N[C@@H](CC(C)C)C(=O)N1CCC[C@H]1C(=O)N1CCC[C@H]1C(=O)N[C@H](C(=O)N[C@@H](CCCCN)C(=O)N[C@H](C(=O)NCC(=O)N[C@@H](CO)C(=O)N[C@@H](CCC(=O)O)C(=O)N[C@H](C(=O)N[C@@H](Cc1ccc(O)cc1)C(N)=O)[C@@H](C)O)C(C)C)[C@@H](C)O [Compound A64] (H-K([γGlu-γGlu-C20 diacid])CNTSTCATQRLANELHKSSNNFGPILPPTKVGSETY-NH2; disulfide 2-7; N-terminus assumed)
- purity of parent peptide (indicative of stability) ([5]; 20% DMSO in DI Water, Day 0 room temp): 98.8%
- purity of parent peptide (indicative of stability) ([5]; 20% DMSO in DI Water, Day 5 37° C.): 98.1%
- purity of parent peptide (indicative of stability) ([5]; 20% DMSO in DI Water, Day 8 37° C.): 98.6%
- purity of parent peptide (indicative of stability) ([5]; 20% DMSO in DI Water, Day 12 37° C.): 97.9%
- purity of parent peptide (indicative of stability) ([5]; 20% DMSO in DI Water, Day 19 37° C.): 97.2%
- purity of parent peptide (indicative of stability) ([5]; 20% DMSO in DI Water, Day 25 37° C.): 97.3%
- purity of parent peptide (indicative of stability) ([5]; 20% DMSO in DI Water, Day 32 37° C.): 97.2%
- purity of parent peptide (indicative of stability) ([5]; DI Water, Day 0 room temp): 100%
- purity of parent peptide (indicative of stability) ([5]; DI Water, Day 5 37° C.): 99.1%
- purity of parent peptide (indicative of stability) ([5]; DI Water, Day 8 37° C.): 98.1%
- purity of parent peptide (indicative of stability) ([5]; DI Water, Day 12 37° C.): 98.1%
- purity of parent peptide (indicative of stability) ([5]; DI Water, Day 19 37° C.): 97.4%
- purity of parent peptide (indicative of stability) ([5]; DI Water, Day 25 37° C.): 97.3%
- purity of parent peptide (indicative of stability) ([5]; DI Water, Day 32 37° C.): 88.5%
- solubility ([1]; Acetate salt, 20% DMSO in DI H2O, room temperature, read-out: Solubility): 123 mg/mL
- solubility ([1]; Acetate salt, DI H2O, room temperature, read-out: Solubility): 104 mg/mL
- solubility ([1]; Acetate salt, Saline, room temperature, read-out: Solubility): 88.3 mg/mL
- solubility ([1]; TFA salt, 20% DMSO in DI H2O, room temperature, read-out: Solubility): 56 mg/mL
- solubility ([1]; TFA salt, DI H2O, room temperature, read-out: Solubility): 103 mg/mL
- Vd (in vivo): 0.182 L/kg
- clearance (in vivo): 0.0641 mL/min/kg
- half-life (in vivo): 37.2 h

Compound: CC[C@H](C)[C@H](NC(=O)[C@@H]1CCCN1C(=O)CNC(=O)[C@H](Cc1ccccc1)NC(=O)[C@H](CC(N)=O)NC(=O)[C@H](CC(N)=O)NC(=O)[C@H](CO)NC(=O)[C@H](CO)NC(=O)[C@H](CCCCN)NC(=O)[C@H](Cc1c[nH]cn1)NC(=O)[C@H](CC(C)C)NC(=O)[C@H](CCC(=O)O)NC(=O)[C@H](CC(N)=O)NC(=O)[C@H](C)NC(=O)[C@H](CC(C)C)NC(=O)[C@H](CCCNC(=N)N)NC(=O)[C@H](CCC(N)=O)NC(=O)[C@@H](NC(=O)[C@H](C)NC(=O)[C@@H]1CSSC[C@H](NC(=O)[C@@H](N)CCCCNC(=O)CC[C@H](NC(=O)CC[C@H](NC(=O)CCCCCCCCCCCCCCCCC(=O)O)C(=O)O)C(=O)O)C(=O)N[C@@H](CC(N)=O)C(=O)N[C@@H]([C@@H](C)O)C(=O)N[C@@H](CO)C(=O)N[C@@H]([C@@H](C)O)C(=O)N1)[C@@H](C)O)C(=O)N[C@@H](CC(C)C)C(=O)N1CCC[C@H]1C(=O)N1CCC[C@H]1C(=O)N[C@H](C(=O)N[C@@H](CCCCN)C(=O)N[C@H](C(=O)NCC(=O)N[C@@H](CO)C(=O)N[C@@H](CCC(=O)O)C(=O)N[C@H](C(=O)N[C@@H](Cc1ccc(O)cc1)C(N)=O)[C@@H](C)O)C(C)C)[C@@H](C)O [Compound A65] (H-K([γGlu-γGlu-C18 diacid])CNTSTCATQRLANELHKSSNNFGPILPPTKVGSETY-NH2; disulfide 2-7; N-terminus assumed)
- solubility ([1]; deionised water, TFA salt, DI H2O, room temperature, read-out: Solubility): 138 mg/mL
- Vd (in vivo; male, Sprague-Dawley): 0.175 L/kg
- clearance (in vivo; male, Sprague-Dawley): 0.101 mL/min/kg
- half-life (in vivo; male, Sprague-Dawley): 22.6 h
- DIO Combination + Exenatide 27 d weight loss, ΔΔ % weight loss ([2]; dose 100 mcg/kg + Exenatide 10 mcg/kg): 8%
- DIO Combination + Exenatide 27 d weight loss, ΔΔ % weight loss ([2]; dose 300 mcg/kg + Exenatide 10 mcg/kg): 9%
- DIO Combination + Exenatide 27 d weight loss, ΔΔ % weight loss ([2]; dose 600 mcg/kg + Exenatide 10 mcg/kg): 12%
- Acute Food Intake % Inhibition vs vehicle ([3]; 0-24 hr after acute SC dosing): 50%
- Acute Food Intake % Inhibition vs vehicle ([3]; 25-48 hr after acute SC dosing): 25%
- Acute Food Intake % Inhibition vs vehicle ([3]; 49-72 hr after acute SC dosing): 14%
- DIO Dose Response 13 d weight loss, ED50 [4]: 0.07 mg/kg
- DIO Dose Response 13 d weight loss, ΔΔ % weight loss [4]: 3%

Compound: davalintide
- half-life [6]: about 26 minutes

Compound: human amylin (KCNTATCATQRLANFLVHSSNNFGAILSSTNVGSNTY) [37-residue polypeptide hormone co-secreted with insulin from pancreatic β-cells]
- half-life [7]: about 13 minutes
